Molecules are shown by their SMILES. Read-outs that look alike come from different tables or passages of the source.

This passage reports IC50 results from US9913843B2, “Protein kinase C inhibitors and uses thereof” (Rigel Pharmaceuticals, Inc., priority 2012, dated 2018).

The subject of this assay is PKC mediated IL-2 production in human primary T cells. As to the kind of experiment: IL-2 ELISA, human primary T cell, anti CD3+CD28+ (whole cell functional assay for PKC mediated IL-2 production). In kind it is cell-based. As to the method: Human primary T cells were prepared as follows. Fresh PBMC's from All Cells (Cat # PB002) were re-suspended in RPMI (RPMI-1640 with L-Glutamine; Mediatech, Inc., Herndon Va., cat. #10-040-CM) with 10% FBS and seeded into flasks and incubated at 37° C. for 2 hours to allow the monocytes to adhere. The non-adherent cells were then centrifuged and re-suspended in RPMI medium containing 40 U/ml IL2 and seeded into a flask pre-coated with 1 μg/ml aCD3 and 5 ug/ml aCD28 (Anti-Human CD3, BD Pharmingen Catalog #555336, Anti-Human CD28, Beckman Coulter Catalog #IM1376). The cells were stimulated for 3-4 days, then transferred to a fresh flask and maintained in RPMI (RPMI-1640 with L-Glutamine; Mediatech, Inc., Herndon Va., cat. #10-040-CM) with 10% FBS and 40 U/ml IL-2.
Human primary T cells (100,000 cells per well) were pre-incubated with or without test compound in RPMI-1640 with L-Glutamine and 10% FBS for 1 hour at 37° C. Cells were then stimulated by transferring them to round-bottom 96-well plates pre-coated with 1 μg/ml aCD3 and 5 μg/ml aCD28. For counter assay, cells were instead stimulated by adding 8× stock solutions of PMA and ionomycin in RPMI-1640 with L-Glutamine and 10% FBS (for final concentrations of 0.5 ng/ml PMA and 0.1 μM ionomycin, both from Calbiochem). Cells were incubated at 37° C. for 24 hours before 100 μL supernatants were harvested for quantification of IL-2 by ELISA using Human IL-2 Duoset ELISA Kit from R and D Systems, Cat. # DY202E.
Compounds 1-156 were tested in a whole cell functional assay for PKC mediated IL-2 production as follows. Human primary T cell isolation and culture: Human primary T cells were prepared as follows. Whole blood was obtained from a healthy volunteer, mixed 1:1 with PBS, layered on to Ficoll Hypaque (Amersham Pharmacia Biotech, Piscataway, N.J., Catalog #17-1440-03) in 2:1 blood/PBS:ficoll ratio and centrifuged for 30 minutes at 4° C. at 1750 rpm. The cells at the serum: ficoll interface were recovered and washed twice with 5 volumes of PBS. These freshly isolated human peripheral blood mononuclear cells were cultured in Yssel's medium containing 40 U/ml IL2 in a flask pre-coated with 1 μg/ml aCD3 and 5 μg/ml aCD28 (Anti-Human CD3, BD Pharmingen Catalog #555336, Anti-Human CD28, Beckman Coulter Catalog #IM1376). The cells were stimulated for 3-4 days, then transferred to a fresh flask and maintained in RPMI (RPMI-1640 with L-Glutamine; Mediatech, Inc., Herndon Va., cat. #10-040-CM) with 10% FBS and 40 U/ml IL-2. The primary T-cells were then washed twice with PBS to remove the IL-2.
Primary T cell stimulation and IL2 ELISA: Human primary T cells (100,000 cells per well) were pre-incubated with or without test compound in Yssel's medium for 1 hour at 37° C. Cells were then stimulated by transferring them to round-bottom 96-well plates pre-coated with 1 μg/ml aCD3 and 5 μg/ml αCD28. For counter assay, cells were instead stimulated by adding 8× stock solutions of PMA and ionomycin in Yssels (for final concentrations of 0.5 ng/ml PMA and 0.1 uM ionomycin, both from Calbiochem). Cells were incubated at 37° C. for 24 hours before 100 μL supernatants were harvested for quantification of IL-2 by ELISA using Human IL-2 Duoset ELISA Kit from R and D Systems, Cat. # DY202E.
(An ELISA detects its analyte on a solid surface through an enzyme-linked reagent.)

Setting [1] is: 24 h, human primary T cells stimulated with anti-CD3 + anti-CD28, IL-2 by ELISA, read-out: IC50 for blocking IL-2 production.
The mark [2] stands for this setting: human primary T cells stimulated with anti-CD3 + anti-CD28, 24 h, IL-2 by ELISA, 8 pt, read-out: IL2 ELISA, Human primary T cell, anti-CD3 + CD28, 8 pt (IC50).

Consider `CCOC(=O)C(C)(C)Oc1cc(F)c(Nc2ncc(C#N)c(NC[C@@H]3CCCN4CCCC[C@H]34)n2)cc1-n1nnn(C)c1=O` [Compound 150, ethyl 2-(4-((5-cyano-4-((((1S,9aR)-octahydro-2H-quinolizin-1-yl)methyl)amino)pyrimidin-2-yl)amino)-5-fluoro-2-(4-methyl-5-oxo-4,5-dihydro-1H-tetrazol-1-yl)phenoxy)-2-methylpropanoate], for which the IC50 is less than 30 µM under setting [1] and 1.14 µM under setting [2]. Consider `Cn1nnn(-c2cc(Nc3ncc(C#N)c(NC[C@@H]4CCCN5CCCC[C@H]45)n3)c(F)cc2O)c1=O` [Compound 128, 2-((2-fluoro-4-hydroxy-5-(4-methyl-5-oxo-4,5-dihydro-1H-tetrazol-1-yl)phenyl)amino)-4-((((1S,9aR)-octahydro-2H-quinolizin-1-yl)methyl)amino)pyrimidine-5-carbonitrile], for which the IC50 is, setting by setting: under setting [1], less than 30 µM; under setting [2], 1.94 µM. For `Cc1nnnn1-c1ccc(F)c(Nc2nccc(NC[C@@H]3CCCN4CCCC[C@H]34)n2)c1` [Compound 50, N2-(2-fluoro-5-(5-methyl-1H-tetrazol-1-yl)phenyl)-N4-(((1S,9aR)-octahydro-1H-quinolizin-1-yl)methyl)pyrimidine-2,4-diamine] the same measures were less than 30 µM and 2 µM. For `CN(C)c1cnc(Nc2cc(-n3nnn(C)c3=O)c(C3CC3)cc2F)nc1NC[C@@H]1CCCN2CCCC[C@H]12` [Compound 87] the same measures were less than 30 µM and 8.26 µM.

On to `N#Cc1cc(Nc2ncc(Cl)c(NC[C@@H]3CCCN4CCCC[C@H]34)n2)ccc1C1CC1` [Compound 41, 5-(4-(((1S,9aR)-octahydro-1H-quinolizin-1-yl)methylamino)-5-chloropyrimidin-2-ylamino)-2-cyclopropylbenzonitrile], for which the half-inhibitory concentration (IC50) was less than 30 µM under setting [1] and 0.0723 µM under setting [2]. Consider `Cc1nnnn1-c1ccc(F)c(Nc2ncc(C(F)(F)F)c(NC[C@@H]3CCCN4CCCC[C@H]34)n2)c1` [Compound 104, N2-(2-fluoro-5-(5-methyl-1H-tetrazol-1-yl)phenyl)-5-(trifluoromethyl)-N4-(((1S,9aR)-octahydro-1H-quinolizin-1-yl)methyl)pyrimidine-2,4-diamine], for which the IC50 under setting [1] was less than 30 µM and the IC50 under setting [2] was 26.8 µM. For `Cc1cnc(Nc2cccc(C#N)c2)nc1NC[C@@H]1CCCN2CCCC[C@H]12` [Compound 66, 3-(4-(((1S,9aR)-octahydro-1H-quinolizin-1-yl)methylamino)-5-methylpyrimidin-2-ylamino)benzonitrile] the same measures were less than 30 µM and 1.48 µM. For `Fc1ccc(S(F)(F)(F)(F)F)cc1Nc1ncc(F)c(NC[C@@H]2CCCN3CCCC[C@H]23)n1` [Compound 29, 5-fluoro-N2-(3-pentafluorosulfanyl-6-fluoro-phenyl)-N4-(((1S,9aR)-octahydro-1H-quinolizin-1-yl)methyl)pyrimidine-2,4-diamine], the IC50 reads like this: under setting [1], less than 30 µM; under setting [2], 1.8 µM.

On to `Cn1nnn(-c2cc(Nc3ncc(Cl)c(NC[C@@H]4CCCN5CCCC[C@H]45)n3)c(F)cc2C2CC2)c1=O` [Compound 34, 1-(5-(4-(((1S,9aR)-octahydro-1H-quinolizin-1-yl)methylamino)-5-chloropyrimidin-2-ylamino)-2-cyclopropyl-4-fluorophenyl)-4-methyl-1H-tetrazol-5(4H)-one], for which the IC50 was less than 30 µM under setting [1] and 0.67 µM under setting [2]. For `N#Cc1cccc(Nc2nccc(NC[C@@H]3CCCN4CCCC[C@H]34)n2)c1` [Compound 53, 3-(4-(((1S,9aR)-octahydro-1H-quinolizin-1-yl)methylamino)pyrimidin-2-ylamino)benzonitrile] the same measures were less than 30 µM and 2.53 µM. On the same counts, the results for `COc1cnc(Nc2ccc3oc(=O)[nH]c3c2)nc1NC[C@@H]1CCCN2CCCC[C@H]12` [Compound 84, 5-(4-(((1S,9aR)-octahydro-1H-quinolizin-1-yl)methylamino)-5-methoxypyrimidin-2-ylamino)benzo[d]oxazol-2(3H)-one] are less than 30 µM and 15.4 µM. As to `[2H]C([2H])(O)C([2H])([2H])Oc1cc(F)c(Nc2ncc(C#N)c(NC[C@@H]3CCCN4CCCC[C@H]34)n2)cc1-n1nnn(C)c1=O` [Compound 137, 2-((2-fluoro-4-(2-hydroxyethoxy-1,1,2,2-d4)-5-(4-methyl-5-oxo-4,5-dihydro-1H-tetrazol-1-yl)phenyl)amino)-4-((((1S,9aR)-octahydro-2H-quinolizin-1-yl)methyl)amino)pyrimidine-5-carbonitrile], the IC50 under setting [1] is less than 30 µM. Regarding `Cn1nnn(-c2cc(Nc3ncc(C#N)c(NC[C@@H]4CCCN5CCCC[C@H]45)n3)c(F)cc2OCC(O)CO)c1=O` (stereo partly drawn) [Compound 132, 2-((4-(2,3-dihydroxypropoxy)-2-fluoro-5-(4-methyl-5-oxo-4,5-dihydro-1H-tetrazol-1-yl)phenyl)amino)-4-((((1S,9aR)-octahydro-2H-quinolizin-1-yl)methyl)amino)pyrimidine-5-carbonitrile], the IC50 is less than 30 µM under setting [1] and 1.24 µM under setting [2]. On the same counts, the results for `N#Cc1cc(Nc2ncc(C(F)(F)F)c(NC[C@@H]3CCCN4CCCC[C@H]34)n2)ccc1C1CC1` [Compound 109, 5-(4-(((1S,9aR)-octahydro-1H-quinolizin-1-yl)methylamino)-5-(trifluoromethyl)pyrimidin-2-ylamino)-2-cyclopropylbenzonitrile] are less than 30 µM and 6.58 µM.

Turning to `Cn1nnn(-c2cc(Nc3ncc(F)c(NC[C@@H]4CCCN5CCCC[C@H]45)n3)c(F)cc2O)c1=O` [Compound 147, 1-(5-((5-fluoro-4-((((1S,9aR)-octahydro-2H-quinolizin-1-yl)methyl)amino)pyrimidin-2-yl)amino)-4-fluoro-2-hydroxyphenyl)-4-methyl-1,4-dihydro-5H-tetrazol-5-one], the IC50 is, setting by setting: under setting [1], less than 30 µM; under setting [2], 5.06 µM.

Regarding `CC(C)N1C(=O)C(C)(C)Oc2cc(Nc3ncc(F)c(NC[C@@H]4CCCN5CCCC[C@H]45)n3)ccc21` [Compound 16, 7-(4-(((1S,9aR)-octahydro-1H-quinolizin-1-yl)methylamino)-5-fluoropyrimidin-2-ylamino)-4-isopropyl-2,2-dimethyl-2H-benzo[b][1,4]oxazin-3(4H)-one], the IC50 was less than 30 µM under setting [1] and 0.703 µM under setting [2]. In the case of `CN(C)c1cnc(Nc2cc(C#N)c(C3CC3)cc2F)nc1NC[C@@H]1CCCN2CCCC[C@H]12` [Compound 95, 5-(4-(((1S,9aR)-octahydro-1H-quinolizin-1-yl)methylamino)-5-(dimethylamino)pyrimidin-2-ylamino)-2-cyclopropyl-4-fluorobenzonitrile], the IC50 under setting [1] was less than 30 µM and the IC50 under setting [2] was 1.74 µM. On the same counts, the results for `Cc1nnnn1-c1ccc(F)c(Nc2ncc(N(C)C)c(NC[C@@H]3CCCN4CCCC[C@H]34)n2)c1` [Compound 89, N2-(2-fluoro-5-(5-methyl-1H-tetrazol-1-yl)phenyl)-N4-(((1S,9aR)-octahydro-1H-quinolizin-1-yl)methyl)-N5,N5-dimethylpyrimidine-2,4,5-triamine] are less than 30 µM and 14.6 µM. Take `CC1(C)Oc2cc(Nc3ncc(F)c(NC[C@@H]4CCCN5CCCC[C@H]45)n3)ccc2N(CC2CC2)C1=O` [Compound 18, 7-(4-(((1S,9aR)-octahydro-1H-quinolizin-1-yl)methylamino)-5-fluoropyrimidin-2-ylamino)-4-(cyclopropylmethyl)-2,2-dimethyl-2H-benzo[b][1,4]oxazin-3(4H)-one]: the IC50 was less than 30 µM under setting [1] and 0.127 µM under setting [2].

As usually defined, the IC50 is the midpoint of a concentration-inhibition curve.
